Data as given in publication PMC6768323, “Adverse Maternal, Fetal, and Postnatal Effects of Hexafluoropropylene Oxide Dimer Acid (GenX) from Oral Gestational Exposure in Sprague-Dawley Rats” (Environmental Health Perspectives, 2019).

Target: T1, chimp AR (Pan troglodytes, UniProt O97775)
T1 construct: expressed in transfected cells; host or cells: CV-1 cells (ATCC CCL-70), adenoviral transduction
T1 sequence (O97775 1-911): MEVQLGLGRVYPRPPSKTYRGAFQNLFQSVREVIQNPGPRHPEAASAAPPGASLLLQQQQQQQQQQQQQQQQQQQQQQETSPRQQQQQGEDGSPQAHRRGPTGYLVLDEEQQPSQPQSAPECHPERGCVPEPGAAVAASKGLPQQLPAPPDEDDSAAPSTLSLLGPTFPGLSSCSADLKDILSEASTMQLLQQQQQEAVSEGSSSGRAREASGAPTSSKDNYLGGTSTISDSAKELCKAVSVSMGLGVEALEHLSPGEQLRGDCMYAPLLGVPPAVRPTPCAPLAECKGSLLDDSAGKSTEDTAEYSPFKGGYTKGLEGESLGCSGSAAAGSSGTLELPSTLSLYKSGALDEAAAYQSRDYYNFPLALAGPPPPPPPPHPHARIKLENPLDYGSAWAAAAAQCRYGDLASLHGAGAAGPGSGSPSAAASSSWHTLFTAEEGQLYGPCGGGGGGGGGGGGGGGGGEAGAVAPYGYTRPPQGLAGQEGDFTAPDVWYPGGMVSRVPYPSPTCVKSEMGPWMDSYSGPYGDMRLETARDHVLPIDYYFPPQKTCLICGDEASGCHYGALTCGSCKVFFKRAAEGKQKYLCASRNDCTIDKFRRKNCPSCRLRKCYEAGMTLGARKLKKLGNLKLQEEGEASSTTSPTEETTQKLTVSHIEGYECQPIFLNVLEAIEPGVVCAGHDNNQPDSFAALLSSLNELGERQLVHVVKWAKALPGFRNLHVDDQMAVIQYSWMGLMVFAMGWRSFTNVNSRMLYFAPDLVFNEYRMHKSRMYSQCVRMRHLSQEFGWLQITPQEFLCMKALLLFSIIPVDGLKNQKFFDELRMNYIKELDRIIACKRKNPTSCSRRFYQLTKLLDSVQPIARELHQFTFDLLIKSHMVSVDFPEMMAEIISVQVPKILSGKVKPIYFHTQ
Experiment: AR transcriptional activation, CV-1 cells
Assay type: cell-based
Protocol: HFPO-DA was assessed for agonism and antagonism of transcriptional activation for estrogen (ER), androgen (AR), and glucocorticoid receptors (GR). Method details for in vitro transactivation assays for ER ([Wilson et al. 2004a]), AR ([Hartig et al. 2002], [2007]), and GR ([Conley et al. 2017]; [Medlock Kakaley et al. 2018]) have been previously reported. Briefly, for ER activity we utilized the stably transfected T47D-KBluc cell line [publicly available via American Type Culture Collection (ATCC); CRL-2865] according to protocols provided by ATCC with the modification of Dulbecco’s Modified Eagle Media (DMEM) as the cell culture media instead of Roswell Park Memorial Institute (RPMI) media. […] All assays were run in 96-well plates and luminescence was detected using a BMG Fluostar Omega luminometer (BMG Labtech) following 24-h exposure. […] Cellular cytotoxicity across the dosing range was determined for CV-1 cells utilizing the 3-(4,5-dimethylthiazol-2-yl)-2,5-diphenyltetrazolium bromide (MTT) dye ([Mosmann 1983]). HFPO-DA was analyzed using n=2–3 biological replicate assay plates (i.e., unique cell passages) with four technical replicates per treatment per plate. […]

SMILES: O=C(O)C(F)(OC(F)(F)C(F)(F)C(F)(F)F)C(F)(F)F (centres unmarked) [HFPO-DA, Hexafluoropropylene oxide dimer acid]
- androgen receptor agonism (100 pM to 100 μM): no androgen or glucocorticoid receptor agonism
- androgen receptor antagonism, reduction in luciferase expression (100 μM, versus 100 pM DHT): 42±1%
